From patent US20240228487A1, “FUSED HETEROCYCLIC COMPOUND AND APPLICATION THEREOF, PHARMACEUTICAL COMPOSITIONS CONTAINING SAME AND APPLICATION THEREOF” (ZHEJIANG UNIVERSITY, priority 2021, published 2024)

Tested on: WT (TRPM2+/+) and TRPM2 knockout (TRPM2-/-) mice, tMCAO
Assay: tMCAO in WT and TRPM2 knockout mice given autophagy inhibitor
Type: in vivo, mouse
Conditions: FIG. 12
From the text: After isoflurane inhalation gas anesthesia of 22-25 g male WT mice (TRPM2+/+) and TRPM2 knockout (TRPM2−/−) mice, the fiber-optic probes of laser Doppler flowmeter were fixed to the skull of the animals with glue and used to monitor the cerebral blood flow of the middle cerebral artery (MCA) supplying cortex.
The mice were fixed in the supine position, and the middle of the neck was dehaired and routinely sterilized with 75% alcohol. […] Only animals whose blood flow values decreased to 20% of the basic value were selected according to the blood flow data monitored by the flowmeter. […]
The mice were decapitated 24 h after ischemia-reperfusion, the coronal planes of the brains were cut into brain slices of about 2 mm thickness uniformly. […] The processed brain slices were photographed using a macro camera, and Image J image analysis software was used to calculate and count the cerebral infarct volume, and the measured results are shown in FIG. 11. […]

Cn1cnc(N)c2ncnc1-2 [Compound 3-MA]
cerebroprotective effect of reduced TRPM2 levels during cerebral ischemia reperfusion: reversed
